According to patent EP0558245A1, “Heterobicyclic compounds as antagogists of alpha-1 adrenergic and SHT1A receptors” (priority 1992, dated 1993):
Where a name gives a salt, the structure may show the parent alone. Read-outs that look alike come from different tables or passages of the source.

Assays:
rat bladder strips = assay: K+-induced contractions of rat bladder strips; type: cell-based
Experimental: The whole bladder of the rat was removed and immediately placed in Krebs solution warmed at 37°C. […] Each strip was placed in a 10 ml organ bath and connected, under a constant load of 1 g, to an isometric strain gauge (DY-1 Basile, Comerio, Varese, Italy). […] After a 60 minutes equilibration period the strips were exposed to 80 mM KCl (final concentration). […] When the tonic contraction was stable, the strips were washed and 30 minutes later a new contraction was induced. After having recorded two or more reproducible responses, one concentration of the tested drugs was added to the bath and 30 minutes later a new contraction was induced. The experimental groups consisted of at least two preparations taken from different animals for each concentration of drug tested. The IC₅₀ values of inhibition of agonist-induced contractions were evaluated by linear regression analysis.

α₁ receptors = assay: [3H]prazosin binding (α1 receptors), rat cerebral cortex membranes; details: rat cerebral cortex crude membranes, [3H]prazosin 0.35 nM, 25°C 30 min; read-out: Receptor Binding IC50 (nM) α1
Experimental: Rat cerebral cortices were homogenized in 50 volumes of original wet weight of ice-cold 50 mM Tris-HCl buffer pH 7.4. The homogenates were centrifuged at 48,000 x g for 10 minutes, and the pellets were resuspended in the same volume of ice-cold buffer, centrifuged and resuspended two more times. The final pellets obtained were resuspended in the same volume of buffer and incubated according to the conditions reported in the table below.
(§1) The incubations were terminated after the appropriate time (see table) by rapid filtration through Whatman GF/B filters using a Brandel cell harvester. The filters were washed twice with 15 ml of ice-cold buffer (see table). The radioactivity retained on the filters was determined by liquid scintillation counting. Nonspecific binding (which amounted generally to 10-30%) was evaluated by adding high concentrations of the specific displacers (see table). All the compounds were initially tested at 1x10⁻⁶ M concentration, and in the presence of significant displacing activity, a complete competition curve was generated (down to a concentration of 10⁻¹¹ M). All the samples were run in triplicate.

5HT1A receptors = molecular target: T1, 5HT1A receptors (Rattus norvegicus, UniProt P19327); assay: [3H]8-OH-DPAT binding (5HT1A receptors), rat hippocampus membranes; details: rat hippocampus crude membranes, [3H]8-OH-DPAT 1.0 nM, 25°C 30 min; read-out: Receptor Binding IC50 (nM) 5-HT1a
T1 construct: Rat hippocampi were homogenized; from tissue; host or cells: rat hippocampus membranes
T1 sequence (P19327 1-422): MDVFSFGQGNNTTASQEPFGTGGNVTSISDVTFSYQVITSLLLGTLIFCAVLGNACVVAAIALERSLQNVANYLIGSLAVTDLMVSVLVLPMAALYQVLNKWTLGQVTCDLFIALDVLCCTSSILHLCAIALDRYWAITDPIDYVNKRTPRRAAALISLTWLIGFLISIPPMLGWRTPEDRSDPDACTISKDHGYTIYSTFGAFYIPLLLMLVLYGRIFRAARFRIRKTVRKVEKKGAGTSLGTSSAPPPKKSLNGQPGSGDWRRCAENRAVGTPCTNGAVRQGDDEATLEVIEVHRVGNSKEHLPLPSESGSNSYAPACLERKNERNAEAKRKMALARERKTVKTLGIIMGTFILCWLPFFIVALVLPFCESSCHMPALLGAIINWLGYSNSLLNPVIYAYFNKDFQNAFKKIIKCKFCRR
Experimental: Rat hippocampi were homogenized in 50 volumes of original wet weight of ice-cold 50 mM Tris-HCl buffer pH 7.4. The homogenates were centrifuged at 48,000 x g for 10 minutes, and the pellets were resuspended in the same volume of ice-cold buffer, incubated for 10 minutes at 37°C, centrifuged and resuspended two more times. The final pellets obtained were resuspended in the same volume of buffer and incubated according to the conditions reported in the table below.
as §1
The competition curves were always analyzed (to evaluate the IC₅₀ values) by non linear curve fitting of the logistic equation according to the method reported by De Lean et al. (Am. J. Physiol., 235, E97, 1978), utilizing the ALLFIT program [publically available from the National Institutes of Health (N.I.H.) Bethesda, Maryland, USA] written for the IBM PC.

[1] = Acute toxicity in mice after intraperitoneal and oral administration; details: mouse, in vivo, female albino Swiss mice, mortality recorded 7 days after administration
Experimental: Male Sprague Dawley rats [Crl: CD' BR] of 200-300 g b.w., female Albino Swiss mice [Crl: CD-1 (ICR) BR] 20-30 g b.w., and male Beagle dogs (10-12 kg b.w.) were obtained from Charles River, Italy and Nossan (Correzzana, Milan, Italy), respectively. Animals were housed with free access to food and water and maintained on forced light-dark cycle at 22-24°C until the day of experiments.
The acute toxicity of synthesized compounds was evaluated in female albino Swiss mice after intraperitoneal and oral administration. Four logarithmic scaled doses of the compounds were dissolved or suspended in 0.5% Methocel and administered in a volume of 10 ml/kg to groups of 4 mice/dose. Mortality was recorded 7 days after the administration. Data analysis: the LD₅₀ values and their fiducial limits were calculated according to the method of Weil (Biometrics, 8, 249, 1952).

[2] = ip, intraperitoneal, read-out: Acute Toxicity in Mice LD50 (mg/kg) i.p.
[3] = oral, read-out: Acute Toxicity in Mice LD50 (mg/kg) p.o.

Row | SMILES | IC50 (rat bladder strips; read-out: K+ Stimulation of Rat Bladder IC50 (μM) Contractions Phasic) [µM] | IC50 (rat bladder strips; read-out: K+ Stimulation of Rat Bladder IC50 (μM) Contractions Tonic) [µM] | IC50 (α₁ receptors) [nM] | IC50 (5HT1A receptors) [nM] | LD50 at 168 h [1, 2] [mg/kg] | LD50 at 168 h [1, 3] [mg/kg]
1 | COc1ccccc1N1CCN(CCCCOc2cccc3c(=O)c(C)c(-c4ccccc4)oc23)CC1.Cl.Cl [dihydrochloride] | 0.7 | 1.4 | 43 | 53 | – | –
2 | COc1ccccc1N1CCN(CCCN(C)c2cccc3c(=O)c(C)c(-c4ccccc4)oc23)CC1 [Example 35, 8-{N-methyl-3-[4-(2-methoxyphenyl)-1-piperazinyl]-propylamino}-3-methyl-4-oxo-2-phenyl-4H-1-benzopyran hydrochloride hemihydrate] | – | – | 15 | 8 | 329 | 959
3 | COc1ccccc1N1CCN(CCO/N=C/c2cccc3c(=O)c(C)c(-c4ccccc4)oc23)CC1 [Example 70, E-8-{2-[4-(2-methoxyphenyl)-1-piperazinyl]-ethoxyimino-methyl}-3-methyl-4-oxo-2-phenyl-4H-1-benzopyran] | – | – | 53 | 85 | > 500 | 1870
4 | COc1ccccc1N1CCN(CCN(C)S(=O)(=O)c2cccc3c(=O)c(C)c(-c4ccccc4)oc23)CC1.Cl [Example 49, 8-{N-methyl-2-[4-(2-methoxyphenyl)-1-piperazinyl]-ethylsulphamoyl}-3-methyl-4-oxo-2-phenyl-4H-1-benzopyran hydrochloride] | – | – | 152 | 9 | 432 | > 2000
5 | COc1ccccc1N1CCN(CCCN(C(C)=O)c2cccc3c(=O)c(C)c(-c4ccccc4)oc23)CC1.Cl.O [Example 36, 8-{N-acetyl-3-[4-(2-methoxyphenyl)-1-piperazinyl]-propylamino}-3-methyl-4-oxo-2-phenyl-4H-1-benzopyran hydrochloride hydrate] | – | – | 18 | 54 | > 500 | > 2000
6 | Cc1c(-c2ccccc2)oc2c(C(=O)NCCCN3CCN(c4ccccc4)CC3)cccc2c1=O [Example 15, 8-[3-(4-phenyl-1-piperazinyl)-propylcarbamoyl]-3-methyl-4-oxo-2-phenyl-4H-1-benzopyran monohydrochloride hemihydrate] | – | – | 8 | 131 | 306 | 496
7 | COc1ccccc1N1CCN(CCCCc2cccc3c(=O)c(C)c(-c4ccccc4)oc23)CC1.CS(=O)(=O)O [Example 53, 8-{4-[4-(2-methoxyphenyl)-1-piperazinyl]-butyl}-3-methyl-4-oxo-2-phenyl-4H-1-benzopyran methanesulphonate] | – | – | 7 | 41 | 127 | 1020
8 | COc1ccccc1OCCN(C)CCCNC(=O)c1cccc2c(=O)c(C)c(-c3ccccc3)oc12.Cl [Example 62, 8-{3-[N-methyl-2-(2-methoxyphenoxy)-ethylamino]-propylcarbamoyl}-3-methyl-4-oxo-2-phenyl-4H-1-benzopyran hydrochloride] | – | – | 252 | 278 | 128 | 344
9 | COc1ccccc1N1CCN(CCCCNC(=O)c2cccc3c(=O)c(C)c(-c4ccccc4)oc23)CC1.CS(=O)(=O)O [Example 60, 8-{4-[4-(2-methoxyphenyl)-1-piperazinyl]-butylcarbamoyl}-3-methyl-4-oxo-2-phenyl-4H-1-benzopyran methansulphonate] | – | – | 25 | 45 | 203 | 329
10 | Cc1c(-c2ccccc2)oc2c(C(=O)OCCCN3CCN(c4ccccc4)CC3)cccc2c1=O.Cl.Cl [Example 8, 8-[3-(4-phenyl-1-piperazinyl)-propoxycarbonyl]-3-methyl-4-oxo-2-phenyl-4H-1-benzopyran dihydrochloride] | – | – | 66 | 111 | > 500 | 1920
11 | Cc1ccccc1N1CCN(CC(O)c2cccc3c(=O)c(C)c(-c4ccccc4)oc23)CC1.Cl (stereo not drawn) [Example 18, 8-{1-hydroxy-2-[4-(2-methylphenyl)-1-piperazinyl]-ethyl}-3-methyl-4-oxo-2-phenyl-4H-1-benzopyran hydrochloride] | – | – | 270 | > 1000 | 457 | 3000
12 | COc1ccccc1N1CCN(CCN(Cc2cccc3c(=O)c(C)c(-c4ccccc4)oc23)C(C)=O)CC1.Cl [Example 24, 8-{N-acetyl-2-[4-(2-methoxyphenyl)-1-piperazinyl]-ethylaminomethyl}-3-methyl-4-oxo-2-phenyl-4H-1-benzopyran hydrochloride] | – | – | 690 | 212 | > 1000 | > 3000
13 | COc1ccccc1N1CCN(CCCC[S+]([O-])c2cccc3c(=O)c(C)c(-c4ccccc4)oc23)CC1.CS(=O)(=O)O (stereo not drawn) [Example 73, 8-{4-[4-(2-methoxyphenyl)-1-piperazinyl]-butylsulphinyl}-3-methyl-4-oxo-2-phenyl-4H-1-benzopyran methanesulphonate] | – | – | 6 | 89 | 202 | 462
14 | COc1ccccc1N1CCN(CCCC(=O)Nc2cccc3c(=O)c(C)c(-c4ccccc4)oc23)CC1 [Example 69, 8-{4-[4-(2-methoxyphenyl)-1-piperazinyl]-butyramido}-3-methyl-4-oxo-2-phenyl-4H-1-benzopyran methanesulphonate hemihydrate] | – | – | 16 | 87 | 344 | –
15 | COc1ccccc1N1CCN(CCOC(=O)Cc2cccc3c(=O)c(C)c(-c4ccccc4)oc23)CC1.Cl.Cl [Example 66, 8-{2-[4-(2-methoxyphenyl)-1-piperazinyl]-ethoxycarbonylmethyl}-3-methyl-4-oxo-2-phenyl-4H-1-benzopyran dihydrochloride] | – | – | 57 | 56 | – | 601
16 | Cc1c(-c2ccccc2)oc2c(C(=O)OCCCN3CCN(c4ccccc4Cl)CC3)cccc2c1=O.Cl.Cl [Example 7, 8-{3-[4-(2-chlorophenyl)-1-piperazinyl]-propoxycarbonyl}-3-methyl-4-oxo-2-phenyl-4H-1-benzopyran dihydrochloride] | – | – | 86 | 155 | 384 | 1920
17 | Cc1c(-c2ccccc2)oc2c(C(=O)NCCCNCC3COc4ccccc4O3)cccc2c1=O (stereo not drawn) [Example 52, 8-{3-[2-(1,4-benzodioxanyl)methylamino]propylcarbamoyl}-3-methyl-4-oxo-2-phenyl-4H-1-benzopyran methansulphonate] | – | – | 89 | 2 | 127 | 224
18 | COc1ccccc1N1CCN(CCC(=O)N(C)c2cccc3c(=O)c(C)c(-c4ccccc4)oc23)CC1.CS(=O)(=O)O [Example 63, 8-{N-methyl-3-[4-(2-methoxyphenyl)-1-piperazinyl]-propionamido}-3-methyl-4-oxo-2-phenyl-4H-1-benzopyran methanesulphonate] | – | – | 194 | 99 | 309 | 479
19 | COc1ccccc1N1CCN(CCCCNS(=O)(=O)c2cccc3c(=O)c(C)c(-c4ccccc4)oc23)CC1.CS(=O)(=O)O.CS(=O)(=O)O [Example 67, 8-{4-[4-(2-methoxyphenyl)-1-piperazinyl]-butylsulphamoyl}-3-methyl-4-oxo-2-phenyl-4H-1-benzopyran dimethanesulphonate] | – | – | 4 | 4 | 508 | 1870
20 | COc1ccccc1N1CCN(CCC(=O)Nc2cccc3c(=O)c(C)c(-c4ccccc4)oc23)CC1.Cl [Example 37, 8-{3-[4-(2-methoxyphenyl)-1-piperazinyl]-propionamido}-3-methyl-4-oxo-2-phenyl-4H-1-benzopyran hydrochloride] | – | – | 32 | 77 | > 500 | > 2000
